According to patent US12364709B2, “Bioavailable poly amines” (AMINEX THERAPEUTICS, INC., priority 2016, dated 2025):
Like-named read-outs stand apart in the source and are kept apart here.

Assay: 28-day repeat-dose toxicity study, toxicokinetics of AMXT 1501 dicaprate
Format: in vivo, beagle dogs
Settings: both sexes, beagle, dog, plasma, po
Description: AMXT 1501 PK parameters were calculated for all AMXT 1501 dicaprate-dosed animals for the first dose (Day 1) and last dose (Day 28).

## CCCCCCCCCCCCCCCC(=O)NCCCC[C@@H](N)C(=O)NCCCNCCCCNCCCN [AMXT 1501 dicaprate]
16 mg/kg/day, 16 mg/kg/day PO, DFMO 0, Day 28, M+F combined, read-out: AUC0-t Median
  AUC(0-t): 8120 ng·h/mL
16 mg/kg/day, 16 mg/kg/day PO, DFMO 0, Day 28, M+F combined, read-out: AUC0-∞ Mean
  AUC(0-inf): 8070 ng·h/mL
16 mg/kg/day, 16 mg/kg/day PO, DFMO 0, Day 28, M+F combined, read-out: AUC0-∞ Median
  AUC(0-inf): 8280 ng·h/mL
16 mg/kg/day, 16 mg/kg/day PO, DFMO 0, Day 28, M+F combined, read-out: Cmax Mean
  Cmax: 286 ng/mL
16 mg/kg/day, 16 mg/kg/day PO, DFMO 0, Day 28, M+F combined, read-out: Cmax Median
  Cmax: 309 ng/mL
16 mg/kg/day, 16 mg/kg/day PO, DFMO 0, Day 28, M+F combined, read-out: Tmax Mean
  Tmax: 5.6 h
16 mg/kg/day, 16 mg/kg/day PO, DFMO 0, Day 28, M+F combined, read-out: Tmax Median
  Tmax: 6 h
16 mg/kg/day, 16 mg/kg/day PO, DFMO 0, Day 28, M+F combined, read-out: t1/2 Mean (converted)
  half-life: 25.4 h
16 mg/kg/day, 16 mg/kg/day PO, DFMO 0, Day 28, M+F combined, read-out: t1/2 Median (converted)
  half-life: 27.8 h
16 mg/kg/day, 16 mg/kg/day PO, DFMO 50 mg/kg/day, Day 28, M+F combined, read-out: AUC0-24 hr Mean
  AUC(0-t): 4390 ng·h/mL
16 mg/kg/day, 16 mg/kg/day PO, DFMO 50 mg/kg/day, Day 28, M+F combined, read-out: AUC0-24 hr Median
  AUC(0-t): 3340 ng·h/mL
16 mg/kg/day, 16 mg/kg/day PO, DFMO 50 mg/kg/day, Day 28, M+F combined, read-out: AUC0-t Mean
  AUC(0-t): 9440 ng·h/mL
16 mg/kg/day, 16 mg/kg/day PO, DFMO 50 mg/kg/day, Day 28, M+F combined, read-out: AUC0-t Median
  AUC(0-t): 6010 ng·h/mL
16 mg/kg/day, 16 mg/kg/day PO, DFMO 50 mg/kg/day, Day 28, M+F combined, read-out: AUC0-∞ Mean
  AUC(0-inf): 9590 ng·h/mL
16 mg/kg/day, 16 mg/kg/day PO, DFMO 50 mg/kg/day, Day 28, M+F combined, read-out: AUC0-∞ Median
  AUC(0-inf): 6080 ng·h/mL
16 mg/kg/day, 16 mg/kg/day PO, DFMO 50 mg/kg/day, Day 28, M+F combined, read-out: Cmax Mean
  Cmax: 262 ng/mL
16 mg/kg/day, 16 mg/kg/day PO, DFMO 50 mg/kg/day, Day 28, M+F combined, read-out: Cmax Median
  Cmax: 213 ng/mL
16 mg/kg/day, 16 mg/kg/day PO, DFMO 50 mg/kg/day, Day 28, M+F combined, read-out: Tmax Mean
  Tmax: 6.3 h
16 mg/kg/day, 16 mg/kg/day PO, DFMO 50 mg/kg/day, Day 28, M+F combined, read-out: Tmax Median
  Tmax: 6 h
16 mg/kg/day, 16 mg/kg/day PO, DFMO 50 mg/kg/day, Day 28, M+F combined, read-out: t1/2 Mean (converted)
  half-life: 52.8 h
16 mg/kg/day, 16 mg/kg/day PO, DFMO 50 mg/kg/day, Day 28, M+F combined, read-out: t1/2 Median (converted)
  half-life: 57.8 h
16 mg/kg/day, 16 mg/kg/day PO, DFMO 200 mg/kg/day, Day 1, M+F combined, read-out: AUC0-24 hr Mean
  AUC(0-t): 2310 ng·h/mL
16 mg/kg/day, 16 mg/kg/day PO, DFMO 200 mg/kg/day, Day 1, M+F combined, read-out: AUC0-24 hr Median
  AUC(0-t): 2470 ng·h/mL
16 mg/kg/day, 16 mg/kg/day PO, DFMO 200 mg/kg/day, Day 1, M+F combined, read-out: Cmax Mean
  Cmax: 152 ng/mL
16 mg/kg/day, 16 mg/kg/day PO, DFMO 200 mg/kg/day, Day 1, M+F combined, read-out: Cmax Median
  Cmax: 171 ng/mL
16 mg/kg/day, 16 mg/kg/day PO, DFMO 200 mg/kg/day, Day 1, M+F combined, read-out: Tmax Mean
  Tmax: 8.4 h
16 mg/kg/day, 16 mg/kg/day PO, DFMO 200 mg/kg/day, Day 1, M+F combined, read-out: Tmax Median
  Tmax: 6 h
32 mg/kg/day, 32 mg/kg/day PO, DFMO 0, Day 1, M+F combined, read-out: AUC0-24 hr Mean
  AUC(0-t): 3590 ng·h/mL
32 mg/kg/day, 32 mg/kg/day PO, DFMO 0, Day 1, M+F combined, read-out: AUC0-24 hr Median
  AUC(0-t): 3640 ng·h/mL
32 mg/kg/day, 32 mg/kg/day PO, DFMO 0, Day 1, M+F combined, read-out: Cmax Mean
  Cmax: 214 ng/mL
32 mg/kg/day, 32 mg/kg/day PO, DFMO 0, Day 1, M+F combined, read-out: Cmax Median
  Cmax: 224 ng/mL
32 mg/kg/day, 32 mg/kg/day PO, DFMO 0, Day 1, M+F combined, read-out: Tmax Mean
  Tmax: 8.6 h
32 mg/kg/day, 32 mg/kg/day PO, DFMO 0, Day 1, M+F combined, read-out: Tmax Median
  Tmax: 9 h
32 mg/kg/day, 32 mg/kg/day PO, DFMO 0, Day 28, M+F combined, read-out: AUC0-24 hr Mean
  AUC(0-t): 9410 ng·h/mL
32 mg/kg/day, 32 mg/kg/day PO, DFMO 0, Day 28, M+F combined, read-out: AUC0-24 hr Median
  AUC(0-t): 8760 ng·h/mL
32 mg/kg/day, 32 mg/kg/day PO, DFMO 0, Day 28, M+F combined, read-out: AUC0-t Mean
  AUC(0-t): 24700 ng·h/mL
32 mg/kg/day, 32 mg/kg/day PO, DFMO 0, Day 28, M+F combined, read-out: AUC0-t Median
  AUC(0-t): 24300 ng·h/mL
32 mg/kg/day, 32 mg/kg/day PO, DFMO 0, Day 28, M+F combined, read-out: AUC0-∞ Mean
  AUC(0-inf): 24800 ng·h/mL
32 mg/kg/day, 32 mg/kg/day PO, DFMO 0, Day 28, M+F combined, read-out: AUC0-∞ Median
  AUC(0-inf): 24400 ng·h/mL
32 mg/kg/day, 32 mg/kg/day PO, DFMO 0, Day 28, M+F combined, read-out: Cmax Mean
  Cmax: 620 ng/mL
32 mg/kg/day, 32 mg/kg/day PO, DFMO 0, Day 28, M+F combined, read-out: Cmax Median
  Cmax: 620 ng/mL
32 mg/kg/day, 32 mg/kg/day PO, DFMO 0, Day 28, M+F combined, read-out: Tmax Mean
  Tmax: 4.3 h
32 mg/kg/day, 32 mg/kg/day PO, DFMO 0, Day 28, M+F combined, read-out: Tmax Median
  Tmax: 4 h
32 mg/kg/day, 32 mg/kg/day PO, DFMO 0, Day 28, M+F combined, read-out: t1/2 Mean (converted)
  half-life: 48.7 h
32 mg/kg/day, 32 mg/kg/day PO, DFMO 0, Day 28, M+F combined, read-out: t1/2 Median (converted)
  half-life: 53.2 h
